17 compounds from PubChem BioAssay AID248 (DTP/NCI, 2004) can be followed below.

In the experiment the test system is L1210 leukemia ip in BDF1 mice, survival T/C. As to the kind of experiment: NCI In Vivo Anticancer Drug Screen. Data for tumor model L1210 Leukemia (intraperitoneal) in B6D2F1 (BDF1) mice. To be noted: endpoint: mean survival time, higher = longer survival. In a few lines:
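Each compound was tested against a transplantable tumor grown in mice. The endpoint was survival, with treated animals benchmarked against vehicle controls as a simple ratio.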

Where [1] appears, read: dose: 50.0 mg/kg/injection, schedule: Q04DX003 (ip), vehicle: saline with Tween-80.
The mark [2] stands for this setting: dose: 100.0 mg/kg/injection, schedule: Q01DX001 (ip), vehicle: saline.
[3] abbreviates: dose: 100.0 mg/kg/injection, schedule: Q04DX003 (ip), vehicle: Klucel (hydroxypropylcellulose) (HPC).
[4] abbreviates: dose: 200.0 mg/kg/injection, schedule: Q04DX003 (ip), vehicle: Klucel (hydroxypropylcellulose) (HPC).
The mark [5] stands for this setting: dose: 400.0 mg/kg/injection, schedule: Q04DX003 (ip), vehicle: Klucel (hydroxypropylcellulose) (HPC).
Where [6] appears, read: dose: 10.0 mg/kg/injection, schedule: Q01DX001 (ip), vehicle: carboxymethylcellulose (CMC).
The mark [7] stands for this setting: dose: 100.0 mg/kg/injection, schedule: Q01DX009 (ip), vehicle: saline with Tween-80.
The mark [8] stands for this setting: dose: 200.0 mg/kg/injection, schedule: Q01DX009 (ip), vehicle: saline with Tween-80.

“And” between values parts separate entries of the source, which are not always exact repeats. Equal values may be shown once. Inconclusive results and toxic doses are left out.

In the case of `CC(=O)OCCN1CCN(CCCN2c3ccccc3Sc3ccc(C(F)(F)F)cc32)CC1`, the T/C reads like this: (dose: 9.5 mg/kg/injection, schedule: Q04DX003 (ip), vehicle: saline with Tween-80) 114 % of control; (dose: 12.5 mg/kg/injection, schedule: Q04DX003 (ip), vehicle: saline) 106 % of control; (dose: 22.0 mg/kg/injection, schedule: Q04DX003 (ip), vehicle: saline with Tween-80) 120 % of control and 123 % of control; (dose: 25.0 mg/kg/injection, schedule: Q04DX003 (ip), vehicle: saline) 116 % of control; (dose: 33.0 mg/kg/injection, schedule: Q04DX003 (ip), vehicle: saline sonified) 93 % of control; (dose: 33.3 mg/kg/injection, schedule: Q04DX003 (ip), vehicle: saline with Tween-80) 102 % of control. Also, the T/C is 150 % of control under setting [1] and 106 % of control under setting [2].

Take `Cn1ccc2c([N+](=O)[O-])cccc2c1=O`: the T/C runs as follows: (dose: 25.0 mg/kg/injection, schedule: Q04DX003 (ip), vehicle: Klucel (hydroxypropylcellulose) (HPC)) 92 % of control; (dose: 50.0 mg/kg/injection, schedule: Q04DX003 (ip), vehicle: Klucel (hydroxypropylcellulose) (HPC)) 98 % of control.

Turning to `COc1cc(CCNC(=O)Cc2ccc(OCc3ccccc3)cc2)ccc1OCc1ccccc1`, the T/C reads like this: (dose: 50.0 mg/kg/injection, schedule: Q01DX009 (ip), vehicle: Klucel (hydroxypropylcellulose) (HPC)) 91 % of control; (dose: 100.0 mg/kg/injection, schedule: Q01DX009 (ip), vehicle: Klucel (hydroxypropylcellulose) (HPC)) 89 % of control; (dose: 100.0 mg/kg/injection, schedule: Q04DX003 (ip), vehicle: other) 111 % of control; (dose: 200.0 mg/kg/injection, schedule: Q01DX009 (ip), vehicle: Klucel (hydroxypropylcellulose) (HPC)) 89 % of control; (dose: 200.0 mg/kg/injection, schedule: Q04DX003 (ip), vehicle: other) 105 % of control; (dose: 400.0 mg/kg/injection, schedule: Q04DX003 (ip), vehicle: other) 94 % of control.

For the compound `CC(C)N(C=O)c1ccc(C(=O)O)cc1`, the T/C was 93 % of control (dose: 100.0 mg/kg/injection, schedule: Q01DX001 (ip), vehicle: Klucel (hydroxypropylcellulose) (HPC)); 108 % of control under setting [3]; 93 % of control (dose: 200.0 mg/kg/injection, schedule: Q01DX001 (ip), vehicle: Klucel (hydroxypropylcellulose) (HPC)); 97 % of control under setting [4]; 86 % of control (dose: 400.0 mg/kg/injection, schedule: Q01DX001 (ip), vehicle: Klucel (hydroxypropylcellulose) (HPC)); 89 % of control under setting [5].

For `CC(=O)c1ccc(N2CCNCC2)cc1`, the T/C reads like this: under setting [6], 115 % of control; (dose: 20.0 mg/kg/injection, schedule: Q01DX001 (ip), vehicle: carboxymethylcellulose (CMC)) 107 % of control; (dose: 40.0 mg/kg/injection, schedule: Q01DX001 (ip), vehicle: carboxymethylcellulose (CMC)) 109 % of control.

Consider `CC(C)(C)c1ccc(N)c([N+](=O)[O-])c1`, for which the T/C is, setting by setting: (dose: 50.0 mg/kg/injection, schedule: Q01DX009 (ip), vehicle: saline with Tween-80) 102 % of control; under setting [7], 87 % of control; under setting [8], 102 % of control.

In the case of `CCNC(=O)CCl`, the T/C is 96 % of control under setting [2] and 104 % of control (dose: 200.0 mg/kg/injection, schedule: Q01DX001 (ip), vehicle: saline).

As to `C(=C\c1ccc(C2=NCCN2)cc1)/c1ccc(C2=NCCN2)cc1`, the T/C (dose: 11.5 mg/kg/injection, schedule: Q01DX Z (ip), vehicle: carboxymethylcellulose (CMC)) is 115 % of control; the T/C (dose: 23.0 mg/kg/injection, schedule: Q01DX Z (ip), vehicle: carboxymethylcellulose (CMC)) was 119 % of control; the T/C (dose: 46.0 mg/kg/injection, schedule: Q01DX Z (ip), vehicle: carboxymethylcellulose (CMC)) is 150 % of control; the T/C (dose: 62.0 mg/kg/injection, schedule: Q01DX Z (oral), vehicle: carboxymethylcellulose (CMC)) was 103 % of control; the T/C (dose: 125.0 mg/kg/injection, schedule: Q01DX Z (oral), vehicle: carboxymethylcellulose (CMC)) was 108 % of control; the T/C (dose: 250.0 mg/kg/injection, schedule: Q01DX Z (oral), vehicle: carboxymethylcellulose (CMC)) is 104 % of control. Also, the T/C (dose: 500.0 mg/kg/injection, schedule: Q01DX Z (oral), vehicle: carboxymethylcellulose (CMC)) was 101 % of control.

For the compound `CC(=O)Nc1ccc(C(=O)Nc2ccc(C3=NCCN3)cc2)cc1C(=O)Nc1ccc(C2=NCCN2)cc1`, the T/C runs as follows: (dose: 62.0 mg/kg/injection, schedule: Q01DX015 (ip), vehicle: carboxymethylcellulose (CMC)) 317 % of control; (dose: 250.0 mg/kg/injection, schedule: Q01DX015 (ip), vehicle: carboxymethylcellulose (CMC)) 158 % of control.

As for `CCCCOc1ccc(CC(N)C(=O)O)cc1N(CCCl)CCCl` (configuration not stated), the T/C is 111 % of control (dose: 6.6 mg/kg/injection, schedule: Q01DX001 (ip), vehicle: carboxymethylcellulose (CMC)); 116 % of control under setting [6]; 122 % of control (dose: 10.0 mg/kg/injection, schedule: Q01DX001 (ip), vehicle: saline); 107 % of control (dose: 30.0 mg/kg/injection, schedule: Q01DX001 (ip), vehicle: saline); 102 % of control (dose: 60.0 mg/kg/injection, schedule: Q01DX001 (ip), vehicle: saline); 101 % of control (dose: 90.0 mg/kg/injection, schedule: Q01DX001 (ip), vehicle: saline).

`CCCCCCCCCCCCSC1=NS(=O)(=O)c2ccccc21`: the T/C under setting [3] is 106 % of control, the T/C under setting [4] is 94 % of control and the T/C under setting [5] was 90 % of control.

In the case of `O=[N+]([O-])c1cc(Cl)cc(Cl)c1O`, the T/C (dose: 12.5 mg/kg/injection, schedule: Q01DX009 (ip), vehicle: Klucel (hydroxypropylcellulose) (HPC)) was 91 % of control; the T/C (dose: 12.5 mg/kg/injection, schedule: Q04DX002 (ip), vehicle: Klucel (hydroxypropylcellulose) (HPC)) is 90 % of control; the T/C (dose: 25.0 mg/kg/injection, schedule: Q01DX009 (ip), vehicle: Klucel (hydroxypropylcellulose) (HPC)) is 94 % of control; the T/C (dose: 25.0 mg/kg/injection, schedule: Q04DX002 (ip), vehicle: Klucel (hydroxypropylcellulose) (HPC)) is 97 % of control; the T/C (dose: 50.0 mg/kg/injection, schedule: Q04DX002 (ip), vehicle: Klucel (hydroxypropylcellulose) (HPC)) is 94 % of control.

With `O=P(OCc1ccccc1)(N(CCCl)CCCl)N1CCN(P(=O)(OCc2ccccc2)N(CCCl)CCCl)CC1` (configuration not stated), the T/C is 94 % of control (dose: 16.0 mg/kg/injection, schedule: Q01DX Z (ip), vehicle: saline); 89 % of control (dose: 32.0 mg/kg/injection, schedule: Q01DX Z (ip), vehicle: saline); 95 % of control (dose: 64.0 mg/kg/injection, schedule: Q01DX Z (ip), vehicle: saline); 111 % of control (dose: 128.0 mg/kg/injection, schedule: Q01DX Z (ip), vehicle: saline).

`COC(=O)/C=C1\C(C(=O)OC)=Cc2ccccc2N1C`: the T/C runs as follows: under setting [7], 97 % of control; (dose: 100.0 mg/kg/injection, schedule: Q04DX003 (ip), vehicle: saline with Tween-80) 98 % of control; under setting [8], 91 % of control; (dose: 200.0 mg/kg/injection, schedule: Q04DX003 (ip), vehicle: saline with Tween-80) 98 % of control; (dose: 400.0 mg/kg/injection, schedule: Q01DX009 (ip), vehicle: saline with Tween-80) 94 % of control; (dose: 400.0 mg/kg/injection, schedule: Q04DX003 (ip), vehicle: saline with Tween-80) 96 % of control.

For the compound `O=C(O)c1ccccc1/C=N/N1C(=O)CSC1=S`, the T/C was 97 % of control (dose: 2.5 mg/kg/injection, schedule: Q01DX001 (ip), vehicle: carboxymethylcellulose (CMC)); 97 % of control (dose: 5.0 mg/kg/injection, schedule: Q01DX001 (ip), vehicle: carboxymethylcellulose (CMC)); 109 % of control under setting [6].

Take `CCCCCCCCCC(=O)Nc1ccc(CC)cc1`: the T/C runs as follows: (dose: 100.0 mg/kg/injection, schedule: Q04DX002 (ip), vehicle: Klucel (hydroxypropylcellulose) (HPC)) 94 % of control; (dose: 200.0 mg/kg/injection, schedule: Q04DX002 (ip), vehicle: Klucel (hydroxypropylcellulose) (HPC)) 101 % of control; (dose: 400.0 mg/kg/injection, schedule: Q04DX002 (ip), vehicle: Klucel (hydroxypropylcellulose) (HPC)) 111 % of control.

For the compound `N=C(N)c1ccc(-c2cc3ccc(C(=N)N)cc3s2)cc1`, the T/C is 96 % of control (dose: 12.5 mg/kg/injection, schedule: Q04DX003 (ip), vehicle: saline with Tween-80); 107 % of control (dose: 25.0 mg/kg/injection, schedule: Q04DX003 (ip), vehicle: saline with Tween-80); 96 % of control under setting [1].
